Laboratory results: the NIST ThermoML archive (doi:10.1016/j.tca.2013.09.032)

Assay: molar heat capacity at constant pressure
Settings: 101.33 kPa, Crystal, Vacuum adiabatic calorimetry

Cc1cc2nc3c(=O)[nH]c(=O)nc-3n(C[C@H](O)[C@H](O)[C@H](O)CO)c2cc1C [riboflavin]
Settings | molar heat capacity at constant pressure [J/K/mol]
1 K | 0.0523
2 K | 0.209
3 K | 0.47
4 K | 0.836
5 K | 1.31
6 K | 1.88
6.75 K | 2.55
7 K | 2.65
7.32 K | 2.83
8 K | 3.25
8.41 K | 3.45
8.94 K | 4.08
9 K | 4.08
9.34 K | 4.48
9.68 K | 4.81
10 K | 5.1
10.15 K | 5.25
10.36 K | 5.42
10.98 K | 6.23
11.56 K | 7.05
11.98 K | 7.68
13.16 K | 9.25
15 K | 12
15.03 K | 12.22
16.92 K | 15.24
18.77 K | 18.25
20 K | 20.35
20.65 K | 21.38
22.79 K | 25.35
24.95 K | 29.29
25 K | 29.5
27.13 K | 33.81
29.37 K | 38.36
30 K | 39.49
31.61 K | 42.49
33.91 K | 47.31
35 K | 49.35
36.25 K | 51.78
38.52 K | 56.45
40 K | 59.26
40.96 K | 60.98
43.38 K | 65.91
45 K | 68.91
45.72 K | 70.28
48.12 K | 74.84
50 K | 78.34
50.55 K | 79.52
52.99 K | 83.98
55.45 K | 88.71
57.93 K | 93.42
60 K | 97.31
60.48 K | 98.18
62.91 K | 102.6
65.4 K | 106.9
67.89 K | 110.9
70 K | 114.4
70.37 K | 115.1
72.85 K | 119.2
75.32 K | 123.3
77.79 K | 128.2
80 K | 132
80.34 K | 132.4
82.75 K | 137.1
83.48 K | 138.3
85.22 K | 141.4
86.72 K | 144.2
88.86 K | 147.9
89.48 K | 148.9
90 K | 149.6
92.71 K | 153.8
95.7 K | 158.4
98.7 K | 162.9
100 K | 165.2
101.67 K | 167.8
104.65 K | 172.4
107.64 K | 177.1
110 K | 180.4
110.63 K | 181.6
113.62 K | 185.8
116.63 K | 190.1
119.63 K | 194.3
120 K | 195
122.64 K | 198.5
125.66 K | 202.7
128.69 K | 207.3
130 K | 209.2
131.7 K | 211.6
134.72 K | 215.9
137.75 K | 220.3
140 K | 223.3
140.77 K | 224.6
143.8 K | 229
146.83 K | 233
149.86 K | 237.2
150 K | 237.5
152.9 K | 241.7
155.94 K | 246
158.98 K | 250.1
160 K | 251.7
162.02 K | 254.2
165.06 K | 258.6
168.1 K | 263
170 K | 265.7
171.14 K | 267.3
174.19 K | 271.6
177.26 K | 276
180 K | 279.4
180.3 K | 279.9
183.34 K | 283.9
186.38 K | 288.1
189.42 K | 291.9
190 K | 293
192.46 K | 296.2
195.5 K | 300.5
198.54 K | 305
200 K | 306.7
201.58 K | 308.7
204.61 K | 313
207.64 K | 317.5
210 K | 320.5
210.68 K | 321.4
213.72 K | 325.8
216.77 K | 330
219.81 K | 334
220 K | 334.7
222.86 K | 338.3
225.93 K | 342.3
228.98 K | 346.6
230 K | 348.2
232.02 K | 350.4
235.06 K | 355
238.11 K | 359.4
240 K | 361.5
241.15 K | 363.5
244.2 K | 367.7
247.25 K | 371.5
250 K | 375.1
250.29 K | 375.6
253.34 K | 379.8
256.38 K | 383.9
259.42 K | 388.4
260 K | 389.1
262.46 K | 392.5
265.5 K | 396.6
268.54 K | 400.6
270 K | 403
271.58 K | 404.8
273.15 K | 407.4
274.65 K | 409.2
277.69 K | 413.5
280 K | 416.6
280.72 K | 417.4
283.75 K | 421.5
286.78 K | 425.5
289.8 K | 429.8
290 K | 429.9
292.82 K | 434
295.84 K | 438.2
298.15 K | 441.1
298.86 K | 442.2
302.37 K | 447.3
306.36 K | 453.1
310 K | 458.6
310.36 K | 459.1
314.34 K | 464.5
318.32 K | 470
320 K | 472.1
322 K | 474.1
322.29 K | 474.7
